Assay results from publication PMC11984691, “Identifying ENO1 as a protein target of chlorogenic acid to inhibit cellular senescence and prevent skin photoaging in mice” (Aging Cell, 2024).

What was measured:
Enolase 1 (ENO1) C399A = target: T1, Enolase 1 (ENO1) C399A (Homo sapiens, UniProt P06733, C399A); test: MicroScale Thermophoresis with purified mutant ENO1; assay type: binding
T1 construct: recombinant human ENO1-C399A, pET28a, His-tag

Enolase 1 (ENO1) = target: T2, Enolase 1 (ENO1) (Homo sapiens, UniProt P06733); test: MicroScale Thermophoresis with purified ENO1; also LC-MS/MS site mapping, CETSA, pull-down competition and enzyme activity inhibition; assay type: binding
T2 construct: recombinant wild-type human ENO1 (NP_001419.1), pET28a, His-tag
T2 sequence (P06733 2-434): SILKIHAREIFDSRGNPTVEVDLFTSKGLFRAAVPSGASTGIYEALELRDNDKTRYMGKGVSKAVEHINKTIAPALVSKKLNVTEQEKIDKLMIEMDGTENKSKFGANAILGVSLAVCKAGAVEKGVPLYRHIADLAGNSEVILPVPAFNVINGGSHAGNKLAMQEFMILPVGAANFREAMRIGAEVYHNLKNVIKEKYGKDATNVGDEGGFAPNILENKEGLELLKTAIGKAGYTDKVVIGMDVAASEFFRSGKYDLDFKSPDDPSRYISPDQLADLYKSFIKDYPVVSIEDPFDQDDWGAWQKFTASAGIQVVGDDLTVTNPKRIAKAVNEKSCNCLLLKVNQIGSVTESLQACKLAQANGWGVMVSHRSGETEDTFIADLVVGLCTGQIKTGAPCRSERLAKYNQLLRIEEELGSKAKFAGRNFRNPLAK

T1 sequence (P06733 2-434 C399A): as the sequence (P06733 2-434) above, with C398A counted along it

## O=C(/C=C/c1ccc(O)c(O)c1)O[C@@H]1C[C@](O)(C(=O)O)C[C@@H](O)[C@H]1O [CGA, Chlorogenic acid]
Enolase 1 (ENO1) C399A
  Kd: 130 µM
Enolase 1 (ENO1)
  Kd: 20 µM
